From patent US9464063B2, “Benzo [B] [1,4] oxazin derivatives as calcium sensing receptor modulators” (LUPIN ATLANTIS HOLDINGS SA, priority 2011, dated 2016)
Structures can show the parent of a compound that is named as a salt.

Target: T1, Calcium sensing receptor (hCaSR) (Homo sapiens, UniProt P41180)
T1 construct: expressed in transfected cells
T1 sequence (P41180 20-1078): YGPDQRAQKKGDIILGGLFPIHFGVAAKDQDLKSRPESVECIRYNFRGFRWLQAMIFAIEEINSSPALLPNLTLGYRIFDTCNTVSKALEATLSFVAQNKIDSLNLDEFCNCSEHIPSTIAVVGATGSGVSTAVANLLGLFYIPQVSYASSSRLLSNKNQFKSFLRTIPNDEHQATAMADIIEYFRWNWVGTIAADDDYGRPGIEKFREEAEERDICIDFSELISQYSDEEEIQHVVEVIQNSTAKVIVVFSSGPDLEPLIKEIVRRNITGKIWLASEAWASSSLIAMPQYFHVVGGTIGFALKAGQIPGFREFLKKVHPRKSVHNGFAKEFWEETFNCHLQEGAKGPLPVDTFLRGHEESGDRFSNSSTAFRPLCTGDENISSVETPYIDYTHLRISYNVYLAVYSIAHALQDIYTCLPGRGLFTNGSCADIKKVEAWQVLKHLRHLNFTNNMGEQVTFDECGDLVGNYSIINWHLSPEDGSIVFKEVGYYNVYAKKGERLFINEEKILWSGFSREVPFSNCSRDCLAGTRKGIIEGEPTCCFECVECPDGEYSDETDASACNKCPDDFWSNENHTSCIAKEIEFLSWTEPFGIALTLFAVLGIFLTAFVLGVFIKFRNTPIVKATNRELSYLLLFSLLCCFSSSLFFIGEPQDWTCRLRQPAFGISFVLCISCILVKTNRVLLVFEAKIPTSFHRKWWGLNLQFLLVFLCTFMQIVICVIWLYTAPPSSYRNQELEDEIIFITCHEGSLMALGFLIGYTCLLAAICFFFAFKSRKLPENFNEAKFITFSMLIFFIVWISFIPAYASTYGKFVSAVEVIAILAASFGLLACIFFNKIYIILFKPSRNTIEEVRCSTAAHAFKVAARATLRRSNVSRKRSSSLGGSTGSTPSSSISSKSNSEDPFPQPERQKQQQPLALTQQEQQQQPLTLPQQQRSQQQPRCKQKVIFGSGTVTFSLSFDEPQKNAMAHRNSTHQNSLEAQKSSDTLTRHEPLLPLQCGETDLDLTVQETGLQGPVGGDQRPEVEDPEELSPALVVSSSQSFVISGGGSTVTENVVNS
Assay: In-vitro assay of calcimimetics through modulation of calcium sensing receptor: increase in intracellular calcium [Ca2+]i, FLIPR
Assay type: cell-based
Details: stably transfected HEK293 cells expressing hCaSR; Fluo4NW dye; 0.3 mM CaCl2; 8-point assay; read-out: EC50 Range
Procedure: In-Vitro Assay Method of Calcimemtics Through Modulation of Calcium Sensing Receptor (CaSR):
The ability of the compounds to modulate Calcium sensing receptor is determined by measuring an increase in intracellular calcium [Ca^2+]i. Stably transfected HEK293 cells expressing hCaSR_pTriEx-3 hygro vector are developed. Cells are grown overnight on a 96-well plate to 80% confluency in Ham's F12 containing 20% FBS at 37° C., 5% CO2. Subsequently, cells are washed extensively with 20 mM HEPES buffer containing 126 mM NaCl, 1 mM MgCl2 and 4 mM KCl to remove serum components that might interfere with the assay. Cells are loaded with calcium sensing Fluo4NW dye in HEPES base buffer containing 0.1% BSA and 1 mg/ml glucose for 30 minutes to measure changes in intracellular calcium. The activities of the compounds are measured in FLIPR using 0.3 mM CaCl2 in 20 mM HEPES base buffer. The effectiveness of the compound to modulate receptor activity is determined by calculating the EC50 responses for that compound in an 8-point assay and plotted using GraphPad Prism 5.

Row | Structure (SMILES) | EC50
1 | C[C@@H](NCC1CN(c2cccc(OCC(=O)O)c2)c2ccccc2O1)c1cccc2ccccc12 (stereo partly drawn) [Example 50, 2-(3-(2-((((R)-1-(naphthalen-1-yl)ethyl)amino)methyl)-2H-benzo[b] [1,4]oxazin-4(3H)-yl)phenoxy)acetic acid hydrochloride] | 20 to 50 nM
2 | COc1cc(C(=O)O)cc(N2CC(CN[C@H](C)c3cccc4ccccc34)Oc3ccccc32)c1 (stereo partly drawn) [Example 54, 3-Methoxy-5-(2-((((R)-1-(naphthalen-1-yl)ethyl)amino)methyl)-2H-benzo [b][1,4]oxazin-4(3H)-yl) benzoic acid hydrochloride] | 50 to 200 nM
3 | C[C@@H](NCC1CN(c2cccc(CC(=O)O)c2)c2ccccc2O1)c1cccc2ccccc12 (stereo partly drawn) [Example 69, 2-(3-(2-((((R)-1-(Naphthalen-1-yl)ethyl)amino)methyl)-2H-benzo [b][1,4]oxazin-4(3H)-yl)phenyl)acetic acid hydrochloride] | 50 to 200 nM
4 | C[C@@H](NCC1CN(c2cc(F)cc(C(=O)O)c2)c2ccccc2O1)c1cccc2ccccc12 (stereo partly drawn) [Example 72, 3-Fluoro-5-(2-((((R)-1-(naphthalen-1-yl)ethyl)amino)methyl)-2H-benzo [b][1,4]oxazin-4(3H)-yl) benzoic acid hydrochloride] | 50 to 200 nM
5 | Cc1ccc(N2CC(CN[C@H](C)c3cccc4ccccc34)Oc3cc(F)ccc32)cc1C(=O)O (stereo partly drawn) [Example 84, 5-(7-Fluoro-2-((((R)-1-(naphthalen-1-yl)ethyl)amino)methyl)-2H-benzo[b][1,4]oxazin-4(3H)-yl)-2-methyl benzoic acid hydrochloride] | 20 to 50 nM
6 | Cc1cc(N2CC(CCN[C@H](C)c3cccc4ccccc34)Oc3ccccc32)ccc1C(=O)O (stereo partly drawn) [Example 134a, 2-Melhyl-4-(2-(2-(((R-1-(naphthalen-1-yl)ethyl)amino)ethyl)-2H-benzo[b] [1,4]oxazin-4(3H)-yl)benzoic acid hydrochloride] | 50 to 200 nM
7 | C[C@@H](NCCC1CN(c2ccc(C(F)(F)F)c(C(=O)O)c2)c2ccccc2O1)c1cccc2ccccc12 (stereo partly drawn) [Example 135a, 5-(2-(2-(((R)-1-(Naphthalen-1-yl)ethyl)amino)ethyl)-2H-benzo [b][1,4]oxazin-4(3H)-yl)-2-(trifluoromethyl) benzoic acid hydrochloride] | < 20 nM
8 | CC(C)c1ccc(N2CC(CCN[C@H](C)c3cccc4ccccc34)Oc3ccccc32)cc1C(=O)O (stereo partly drawn) [Example 137a, 2-Isopropyl-5-(2-(2-(((R)-1-(naphthalen-1-yl)ethyl)amino)ethyl)-2H-benzo[b] [1,4]oxazin-4(3H)-yl) benzoic acid hydrochloride] | 50 to 200 nM
9 | C[C@@H](NCCC1CN(c2cccc(OCC(=O)O)c2)c2ccccc2O1)c1cccc2ccccc12 (stereo partly drawn) [Example 138a, 2-(3-(2-(2-(((R)-1-(Naphthalen-1-yl)ethyl)amino)ethyl)-2H-benzo[b][1,4]oxazin-4(3H)-yl)phenoxy)aceticacid hydrochloride] | < 20 nM
10 | C[C@@H](NCCC1CN(c2ccc(CCC(=O)O)cc2)c2ccccc2O1)c1cccc2ccccc12 (stereo partly drawn) [Example 139a, 3-(4-(2-(2-(((R)-1-(Naphlhalen-1-yl)ethyl)amino)ethyl)-2H-benzo [b][1,4]oxazin-4(3H)-yl)phenyl)propanoic acid hydrochloride] | < 20 nM
11 | COc1ccc(N2CC(CCN[C@H](C)c3cccc4ccccc34)Oc3ccccc32)cc1C(=O)O (stereo partly drawn) [Example 141a, 2-Methoxy-5-(2-(2-(((R)-1-(naphthalen-1-yl)ethyl)amino)ethyl)-2H-benzo[b] [1,4]oxazin-4(3H)-yl) benzoic acid hydrochloride] | < 20 nM
12 | C[C@@H](NCCC1CN(c2ccc(CC(=O)O)cc2)c2ccccc2O1)c1cccc2ccccc12 (stereo partly drawn) [Example 143a, 2-(4-(2-(2-(((R)-1-(Naphthalen-1-yl)ethyl)amino)ethyl)-2H-benzo[b][1,4]oxazin-4(3H)-yl)phenyl) acetic acid hydrochloride] | 50 to 200 nM
13 | Cc1cc(N2CC(CCN[C@H](C)c3cccc4ccccc34)Oc3ccccc32)ccc1OCC(=O)O (stereo partly drawn) [Example 144a, 2-(2-Methyl-4-(2-(2-(((R)-1-(naphlhalen-1-yl)ethyl)amino)ethyl)-2H-benzo[b] [1,4]oxazin-4(3H)-yl)phenoxy)aceticacid hydrochloride] | < 20 nM
14 | Cc1ccc(N2CC(CCN[C@H](C)c3cccc4ccccc34)Oc3ccccc32)c(C)c1C(=O)O (stereo partly drawn) [Example 148a, 2,6-Dimethyl-3-(2-(2-(((R)-1-(naphthalen-1-yl)ethyl)amino)ethyl)-2H-benzo[b] [1,4]oxazin-4(3H)-yl) benzoic acid hydrochloride] | < 20 nM
15 | Cc1ccc(CN2CC(CCN[C@H](C)c3cccc4ccccc34)Oc3ccccc32)cc1C(=O)O (stereo partly drawn) [Example 177a, 2-Methyl-5-((2-(2-(((R)-1-(naphthalen-1-yl)ethyl)amino)ethyl)-2H-benzo[b][1,4]oxazin-4(3H)-yl)methyl)benzoic acid hydrochloride] | < 20 nM
